Series [1] has as its system Human immunodeficiency virus 1. Briefly: Antiviral activity against VSVG pseudotyped HIV1 infected in HEK293 cells preincubated for 3 hrs followed by compound washout and subsequent compound redosing and measured after 72 hrs by luciferase reporter gene based assay. It counts as functional, organism-based. The following applies: Human immunodeficiency virus 1, HEK293.

Series [2] in a line: Cytotoxicity against HEK293 cells assessed as cell viability by MTT assay. It counts as cell-based. The following applies: human. On the technique in general: Tetrazolium dyes change colour on reduction, which living cells bring about.
Series [3] deals with Virion infectivity factor (Human immunodeficiency virus type 1 group M subtype B (isolate NY5)(HIV-1)) (UniProt P12504). Kind of series: Inhibition of HIV1 HA-tagged Vif expressed in HEK293T cells co-expressing Myc-tagged pcDNA-APOBEC3G assessed as reduction in Vif-mediated A3G degradation at 10 uM measured after 16 hrs by Western blot analysis. In kind it is cell-based. The conditions noted are these: Human immunodeficiency virus 1, HEK-293T.
Chain of Virion infectivity factor (Human immunodeficiency virus type 1 group M subtype B (isolate NY5)(HIV-1)) (P12504 whole entry): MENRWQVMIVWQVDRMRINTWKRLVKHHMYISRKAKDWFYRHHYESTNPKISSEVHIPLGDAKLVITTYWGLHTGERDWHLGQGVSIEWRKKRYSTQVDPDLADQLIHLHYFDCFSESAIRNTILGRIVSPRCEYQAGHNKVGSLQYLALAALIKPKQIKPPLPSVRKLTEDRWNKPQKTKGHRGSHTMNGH

Series [4] shares this target. Briefly: Inhibition of HIV1 HA-tagged Vif expressed in HEK293T cells co-expressing Myc-tagged pcDNA-APOBEC3G and pcDNA-ubiquitin-His assessed as reduction in Vif-mediated A3G polyubiquitination at 10 uM measured after 16 hrs by Western blot analysis. In kind it is cell-based. The conditions noted are these: Human immunodeficiency virus 1, HEK-293T. Background: Immunoblotting shows a protein as a band on a membrane.

Series [5] in a line: AUC (0 to 24 hrs) in monkey plasma at 20 mg/kg, po administered as single dose by LC-MS/MS analysis. In kind it is ADME, organism-based, Macaca mulatta. Further details: dose 20 mg/kg, time < 24 hr, route oral. The following applies: rhesus monkey.
A short description of series [6]: Tmax in monkey plasma at 20 mg/kg, po administered as single dose by LC-MS/MS analysis. It counts as ADME, organism-based, Macaca mulatta. The conditions noted are these: rhesus monkey.
A short description of series [7]: Cmax in monkey plasma at 20 mg/kg, po administered as single dose by LC-MS/MS analysis. It counts as ADME, organism-based, Macaca mulatta. Further details: dose 20 mg/kg, route oral. The conditions noted are these: rhesus monkey.
Series [8] can be described thus: AUC (0 to 24 hrs) in monkey PBMC assessed as 3TC-TP level at 20 mg/kg, po administered as single dose by LC-MS/MS analysis. It counts as ADME, organism-based, Macaca mulatta. More on the design: time < 24 hr, dose 20 mg/kg, route oral. The conditions noted are these: rhesus monkey, in vivo.
A short description of series [9]: Tmax in monkey PBMC assessed as 3TC-TP level at 20 mg/kg, po administered as single dose by LC-MS/MS analysis. The conditions noted are these: rhesus monkey, in vivo. In kind it is ADME, organism-based, Macaca mulatta.
Series [10] is described as follows: Cmax in monkey PBMC assessed as 3TC-TP level at 20 mg/kg, po administered as single dose by LC-MS/MS analysis. It counts as ADME, organism-based, Macaca mulatta. More on the design: dose 20 mg/kg, route oral. The following applies: rhesus monkey, in vivo.
Series [11] can be described thus: Cmax in monkey plasma at 20 mg/kg, po administered as single dose measured after 72 hrs by LC-MS/MS analysis. It counts as ADME, organism-based, Macaca mulatta. More on the design: dose 20 mg/kg, route oral. The following applies: rhesus monkey.
Series [12] concerns Human immunodeficiency virus 1. Briefly: Antiviral activity against JRFL pseudotyped HIV1 infected in human Hut/CCR5 cells assessed as time needed to reach 50% reduction of virus infection at 10000 nM incubated with cells for 4 hrs prior to compound washout followed by viral infection and measured after 72 hrs by luciferase reporter gene assay. In kind it is functional. Background: Reporter assays use an easily measured gene product as a stand-in for the process of interest.

A short description of series [13]: Cytotoxicity against human Hut/CCR5 cells assessed as reduction in cell viability at 1000 to 10000 nM measured after 120 hrs by MTT assay. The following applies: 10 µM. In kind it is cell-based.
The nature of series [14]: Binding affinity to HIV1 Vif and CBFbeta-ELOB-ELOC complex (unknown origin) by CM5 chip based assay.
Series [15] concerns the target Virion infectivity factor (Human immunodeficiency virus type 1 group M subtype B (isolate NY5)(HIV-1)) (UniProt P12504). Briefly: Inhibition of HIV1 HA-tagged Vif expressed in HEK293T cells co-expressing Myc-tagged pcDNA-APOBEC3G assessed as reduction in Vif-mediated A3G degradation at 10000 nM measured after 48 hrs by Western blot analysis. In kind it is cell-based. The following applies: Human immunodeficiency virus 1, HEK-293T.

For series [16] the target is unchanged. Briefly: Inhibition of HIV1 HA-tagged Vif expressed in HEK293T cells co-expressing eGFP-tagged pcDNA-APOBEC3G assessed as reduction in Vif-mediated A3G degradation at 10000 nM measured after 48 hrs by flow cytometry. It counts as cell-based. The conditions noted are these: Human immunodeficiency virus 1, HEK-293T.
Series [17] relates to Human immunodeficiency virus 1. Briefly: Antiviral activity against JRFL pseudotyped HIV1 infected in human Hut/CCR5 cells assessed as time needed to reach 50% reduction of virus infection at 1000 nM incubated with cells for 4 hrs prior to compound washout followed by viral infection and measured after 72 hrs by luciferase reporter gene assay. It counts as functional.

Experimental findings from ChEMBL document CHEMBL4619799, “Mechanistic Insight into Antiretroviral Potency of 2'-Deoxy-2'-β-fluoro-4'-azidocytidine (FNC) with a Long-Lasting Effect on HIV-1 Prevention” (J Med Chem, 2020) are described below.

The structures appear in SMILES notation. Calls of active or inactive are those of the source. The rule behind the calls is not given here. Peptide text beside a SMILES is read from it. * marks the point of attachment. Cbz = O=C(OCc1ccccc1)*

One may read the EC50 as the midpoint of the concentration-response curve. What is called CC50 is the concentration giving 50% cytotoxicity. Usually AUC(0-t) stands for exposure summed from dosing to a finite time, without extrapolation to infinity. For orientation: Tmax means the time at which the peak concentration occurs. A word on the Cmax: it is the maximum level reached in the sampled fluid or tissue. The term AUC denotes concentration integrated over time. As usually defined, the Kd is the free concentration of one partner at which half of the binding sites on the other are occupied at equilibrium, for simple one-to-one binding.

In turn, `[N-]=[N+]=N[C@]1(CO)O[C@@H](n2ccc(N(CCO)CCO)nc2=O)[C@@H](F)[C@@H]1O` showed a 50% effective concentration (EC50) in [1] of 0.8 µM. Moreover, the CC50 in series [2] was at least 25 µM.
With `[N-]=[N+]=N[C@]1(CO)O[C@@H](n2ccc(NCCc3ccc(O)cc3)nc2=O)[C@@H](F)[C@@H]1O`, the midpoint of the response in series [1], the EC50, lay at 5.7 µM. Besides, in [2], the cytotoxic concentration (CC50) was at least 25 µM.
In the case of `CCONc1ccn([C@@H]2O[C@@](CO)(N=[N+]=[N-])[C@@H](O)[C@@H]2F)c(=O)n1`, the half-maximal effective concentration (EC50) in [1] is above 10 µM.
Regarding `CC(C)C[C@@H](C=O)NC(=O)[C@H](CC(C)C)NC(=O)[C@H](CC(C)C)NC(=O)OCc1ccccc1` (Cbz-Leu-Leu-Leu-aldehyde), the inhibition entry in series [3] and in series [4] was “Active” in each case.
The molecule `[N-]=[N+]=N[C@]1(CO)O[C@@H](n2ccc(N3CCOCC3)nc2=O)[C@@H](F)[C@@H]1O` displayed a concentration giving a half-maximal response (EC50) in [1] above 10 µM.
With `CON(C)c1ccn([C@@H]2O[C@@](CO)(N=[N+]=[N-])[C@@H](O)[C@@H]2F)c(=O)n1`, in series [1], the 50% effective concentration (EC50) was above 10 µM.
On the same count and under the same terms, the value for `[N-]=[N+]=N[C@]1(CO)O[C@@H](n2ccc(NC3CCCCC3)nc2=O)[C@@H](F)[C@@H]1O` was above 10 µM.
For the molecule `Nc1ccn([C@@H]2CS[C@H](CO)O2)c(=O)n1` [LAMIVUDINE], in [1], the concentration for a half-maximal effect (EC50) was found to be 0.3 µM. The CC50 in [2] is at least 25 µM. In series [5], the AUC(0-t) at 24 h came out at 395 µM·h. For the same molecule, the Tmax in series [6] and in series [9] was 1 h throughout. The Cmax in series [7] came out at 31300 nM; in [10], 0.03 nM; in series [11], 93.6 nM. Also, in series [8], the exposure (AUC) turned out to be 0.00013 µM·h. Also, the Time in [12] was 42.7 to 42.74 h; in series [17] it was 26.75 h. Also, the Activity entry in [13] was “Non-Toxic”. Further, in series [14], the Kd came out at 1.51 µM. The inhibition entry in series [15] and in [16] was “inactive” in each case.
Consider `[N-]=[N+]=N[C@]1(CO)O[C@@H](n2ccc(N3CCCC3)nc2=O)[C@@H](F)[C@@H]1O`, for which the EC50 in [1] was above 10 µM.
The same measure, in the same setting: the value for `[N-]=[N+]=N[C@]1(CO)O[C@@H](n2ccc(NCCCO)nc2=O)[C@@H](F)[C@@H]1O` was above 10 µM; that for `[N-]=[N+]=N[C@]1(CO)O[C@@H](n2ccc(NCCO)nc2=O)[C@@H](F)[C@@H]1O` was above 10 µM.
In series [1], `CCNc1ccn([C@@H]2O[C@@](CO)(N=[N+]=[N-])[C@@H](O)[C@@H]2F)c(=O)n1` had an EC50 above 10 µM.
`CCN(CC)c1ccn([C@@H]2O[C@@](CO)(N=[N+]=[N-])[C@@H](O)[C@@H]2F)c(=O)n1` showed a concentration giving a half-maximal response (EC50) in [1] above 10 µM.
With `[N-]=[N+]=N[C@]1(CO)O[C@@H](n2ccc(NO)nc2=O)[C@@H](F)[C@@H]1O`, the concentration for a half-maximal effect (EC50) in series [1] is 0.7 µM. In series [2], the CC50 is at least 25 µM.
`CNc1ccn([C@@H]2O[C@@](CO)(N=[N+]=[N-])[C@@H](O)[C@@H]2F)c(=O)n1` came in with an EC50 in series [1] of 6.7 µM. Also, in series [2], the CC50 was at least 25 µM.
For the molecule `CONc1ccn([C@@H]2O[C@@](CO)(N=[N+]=[N-])[C@@H](O)[C@@H]2F)c(=O)n1`, the EC50 in series [1] is above 10 µM.
Turning to `[N-]=[N+]=N[C@]1(CO)O[C@@H](n2ccc(NCc3cccnc3)nc2=O)[C@@H](F)[C@@H]1O`, in series [1], the EC50 was 1.3 µM. Further, in series [2], the CC50 was at least 25 µM.
Turning to `COc1ccc(Nc2ccn([C@@H]3O[C@@](CO)(N=[N+]=[N-])[C@@H](O)[C@@H]3F)c(=O)n2)c(OC)c1`, a half-maximal effect in [1] (EC50) was put at 5.2 µM. In addition, in series [2], the CC50 is at least 25 µM.
On to `[N-]=[N+]=N[C@]1(CO)O[C@@H](n2ccc(NCc3ccco3)nc2=O)[C@@H](F)[C@@H]1O`, for which it took 0.7 µM to reach a half-maximal effect in series [1] (EC50). In addition, in [2], the CC50 is at least 25 µM.
As to `CN(C)c1ccn([C@@H]2O[C@@](CO)(N=[N+]=[N-])[C@@H](O)[C@@H]2F)c(=O)n1`, in [1], the EC50 came out at 13 µM. Moreover, the CC50 in [2] is at least 25 µM.
